The structures appear in SMILES notation.

This assay concerns the target T1, recombinant human GST-SYK (Homo sapiens, UniProt P43405).
T1 construct: purchased Carna Biosciences 08-176
Briefly: Homogeneous Time-Resolved Fluorescence (HTRF) assay for the recombinant human Syk enzyme. The format is biochemical. The note with it: HTRF assay, recombinant human GST-SYK; IC50 given as class symbols; read-out: rhSYK Activity. The protocol: Homogeneous Time-Resolved Fluorescence (HTRF) Assay for the Recombinant Human Syk Enzyme
A recombinant GST-hSYK fusion protein was used to measure potency of compounds to inhibit human Syk activity. The recombinant human GST-SYK (Carna Biosciences #08-176) ([…]) was incubated with various concentrations of the inhibitor diluted in DMSO (0.1% final concentration) for 10 minutes at room temperature in 15 mM Tris-HCl (pH 7.5), 0.01% tween 20, 2 mM DTT in 384 well plate format. To initiate the reaction the biotinylated substrate peptide (250 nM final concentration) that contains the phosphorylation site for Syk was added with magnesium (5 mM final concentration) and ATP (25 μM final concentration). Final volume of the reaction was 10 μL. Phosphorylation of the peptide was allowed to proceed for 45′ at room temperature. To quench the reaction and detect the phosphorylated product, 2 nM of a Europium-anti-phosphotyrosine antibody (Perkin Elmer #AD0161) and 70 nM SA-APC (Perkin-Elmer #CR130-100) were added together in 15 mM Tris pH 7.5, 40 mM EDTA, 0.01% tween 20. Final volume of the quenching solution was 10 μL. The resulting HTRF signal was measured after 30 minutes on an EnVision (Perkin-Elmer) reader using a time-resolved fluorescence protocol.
On the technique in general: TR-FRET usually uses a lanthanide donor and a delayed reading to cut background.
For `Cc1cc(Nc2nccc(C(F)(F)F)n2)cc(-c2ccc(NC3COC3)nc2)c1` [Example 7.47, N-{3-methyl-5-[6-(oxetan-3-ylamino)pyridin-3-yl]phenyl}-4-(trifluoromethyl)pyrimidin-2-amine], the IC50 was below 100 nM. Consider `Cc1cc(Nc2nccc(C(F)(F)F)n2)cc(-c2ccc(C(=O)NC(C)CO)nc2)c1` (stereo not drawn) [Example 16.7, N-(2-hydroxy-1-methylethyl)-5-(3-methyl-5-{[4-(trifluoromethyl)pyrimidin-2-yl]amino}phenyl)pyridine-2-carboxamide], for which the IC50 is below 100 nM. The result for `CC1(C)CC(O)(c2ccc(-c3cccc(Nc4nccc(C(F)(F)F)n4)c3)cn2)CCC1C(=O)O` (stereo not drawn) [Example 9.43, 4-hydroxy-2,2-dimethyl-4-[5-(3-{[4-(trifluoromethyl)pyrimidin-2-yl]amino}phenyl)pyridin-2-yl]cyclohexanecarboxylic acid] reads below 100 nM; that for `Cc1cc(Nc2nccc(C(F)(F)F)n2)cc(-c2ccc(-c3noc(=O)[nH]3)nc2)c1` [Example 18.11], below 100 nM; that for `COc1cc(-c2cccc(Nc3nccc(C(F)(F)F)n3)c2)ccn1` [Example 2.122, N-[3-(2-methoxypyridin-4-yl)phenyl]-4-(trifluoromethyl)pyrimidin-2-amine], 100 to 1000 nM. `Cc1cc(Nc2nccc(C(F)(F)F)n2)cc(-c2cncc(C#N)c2)c1` [Example 2.56, 5-(3-methyl-5-{[4-(trifluoromethyl)pyrimidin-2-yl]amino}phenyl)pyridine-3-carbonitrile]: the IC50 is below 100 nM. The result for `Cc1cc(Nc2nccc(C(F)(F)F)n2)cc(-c2ccc(F)nc2)c1` [Example 4.4, N-[3-(6-fluoropyridin-3-yl)-5-methylphenyl]-4-(trifluoromethyl)pyrimidin-2-amine] reads 100 to 1000 nM; that for `Cc1cc(Nc2nccc(C(F)(F)F)n2)cc(-c2ccc(N3CCCC3C(=O)O)nc2)c1` (racemic) [Example 7.119, 1-[5-(3-methyl-5-{[4-(trifluoromethyl)pyrimidin-2-yl]amino}phenyl)pyridin-2-yl]proline], below 100 nM.

Take `COc1ccnc(Nc2cc(C)cc(-c3ccc(C(C)(O)[C@H]4CC[C@H](C(=O)O)CC4)nc3)c2)n1` (stereo partly drawn) [Example 9.25, trans-4-[1-hydroxy-1-(5-{3-[(4-methoxypyrimidin-2-yl)amino]-5-methylphenyl}pyridin-2-yl)ethyl]cyclohexanecarboxylic acid]: the IC50 was below 100 nM. The same measure for `CCCCOC(=O)C1CCC(C(C)(O)c2ccc(-c3cc(C)cc(Nc4nccc(C(F)(F)F)n4)c3)cn2)CC1` (single isomer, unassigned) [Example 9.52, butyl trans-4-{(1R or 1S)-1-hydroxy-1-[5-(3-methyl-5-{[4-(trifluoromethyl)pyrimidin-2-yl]amino}phenyl)pyridin-2-yl]ethyl}cyclohexanecarboxylate]: 100 to 1000 nM; for `Cc1cc(Nc2nccc(C(F)(F)F)n2)cc(-c2ccc(C(=O)NCc3cnn(C)c3)nc2)c1` [Example 16.14, N-[(1-methyl-1H-pyrazol-4-yl)methyl]-5-(3-methyl-5-{[4-(trifluoromethyl)pyrimidin-2-yl]amino}phenyl)pyridine-2-carboxamide]: 100 to 1000 nM.

In the case of `O=C(O)CCc1cncc(-c2cccc(Nc3nccc(C(F)(F)F)n3)c2)c1` [Example 2.79, 3-[5-(3-{[4-(trifluoromethyl)pyrimidin-2-yl]amino}phenyl)pyridin-3-yl]propanoic acid], the IC50 is below 100 nM. Take `O=c1[nH]c2cc(-c3cccc(Nc4nccc(C(F)(F)F)n4)c3)cnc2[nH]1` [Example 2.44, 6-(3-{[4-(trifluoromethyl)pyrimidin-2-yl]amino}phenyl)-1,3-dihydro-2H-imidazo[4,5-b]pyridin-2-one]: the IC50 is below 100 nM. `Cc1cc(Nc2nccc(C3CC3)n2)cc(-c2cncc(CCC(=O)O)c2)c1` [Example 2.102, 3-(5-{3-[(4-cyclopropylpyrimidin-2-yl)amino]-5-methylphenyl}pyridin-3-yl)propanoic acid]: the IC50 was below 100 nM. The same measure for `Cc1cc(Nc2nccc(C(F)(F)F)n2)cc(-c2ccnc(N3CCC(C(=O)O)CC3)c2)c1` [Example 15.87, 1-[4-(3-methyl-5-{[4-(trifluoromethyl)pyrimidin-2-yl]amino}phenyl)pyridin-2-yl]piperidine-4-carboxylic acid]: below 100 nM; for `Cc1cc(Nc2nccc(C(F)(F)F)n2)cc(-c2ccc(C3(O)CCC(C(=O)O)C(C)(C)C3)nc2)c1` (single isomer, unassigned) [Example 9.16, (1R,4S or 1S,4R)-4-hydroxy-2,2-dimethyl-4-[5-(3-methyl-5-{[4-(trifluoromethyl)pyrimidin-2-yl]amino}phenyl)pyridin-2-yl]cyclohexanecarboxylic acid]: below 100 nM; for `Cc1cc(Nc2nccc(C(F)(F)F)n2)cc(-c2ccnc(N3CCCC4(CCCO4)C3)c2)c1` (stereo not drawn) [Example 15.28, N-{3-methyl-5-[2-(1-oxa-7-azaspiro[4.5]dec-7-yl)pyridin-4-yl]phenyl}-4-(trifluoromethyl)pyrimidin-2-amine]: 100 to 1000 nM.

For the compound `Cc1cc(Nc2nccc(C(F)(F)F)n2)cc(-c2ccc(N3CCCC[C@@H]3C(=O)O)nc2)c1` [Example 7.85, (2R)-1-[5-(3-methyl-5-{[4-(trifluoromethyl)pyrimidin-2-yl]amino}phenyl)pyridin-2-yl]piperidine-2-carboxylic acid], the IC50 was below 100 nM. The same measure for `CC(=O)N1CCCN(c2ccc(-c3cc(C)cc(Nc4nccc(C(F)(F)F)n4)c3)cn2)CC1` [Example 7.59, N-{3-[6-(4-acetyl-1,4-diazepan-1-yl)pyridin-3-yl]-5-methylphenyl}-4-(trifluoromethyl)pyrimidin-2-amine]: below 100 nM; for `Cc1cc(Nc2nccc(C(F)(F)F)n2)cc(-c2ccc(CO)nc2)c1` [Example 4.7, [5-(3-methyl-5-{[4-(trifluoromethyl)pyrimidin-2-yl]amino}phenyl)pyridin-2-yl]methanol]: below 100 nM.

`Cc1cc(Nc2nccc(C(F)(F)F)n2)cc(-c2cncc(C(C)(O)C(F)(F)F)c2)c1` (stereo not drawn) [Example 9.81, 1,1,1-trifluoro-2-[5-(3-methyl-5-{[4-(trifluoromethyl)pyrimidin-2-yl]amino}phenyl)pyridin-3-yl]propan-2-ol]: the IC50 is below 100 nM. As for `Cc1cc(Nc2nccc(C(F)(F)F)n2)cc(-c2ccc(Oc3ccc(C(=O)O)cc3)nc2)c1` [Example 2.112, 4-{[5-(3-methyl-5-{[4-(trifluoromethyl)pyrimidin-2-yl]amino}phenyl)pyridin-2-yl]oxy}benzoic acid], the IC50 was below 100 nM. On to `Cc1cc(Nc2nccc(C(F)(F)F)n2)cc(-c2ccc(C3(O)CCN(C(N)=O)CC3)nc2)c1` [Example 10.3, 4-hydroxy-4-[5-(3-methyl-5-{[4-(trifluoromethyl)pyrimidin-2-yl]amino}phenyl)pyridin-2-yl]piperidine-1-carboxamide], for which the IC50 is below 100 nM. The same measure for `Cc1cc(Nc2nccc(C)n2)cc(-c2ccc([C@]3(O)CC[C@@H](C(=O)O)CC3)nc2)c1` [Example 9.37, cis-4-hydroxy-4-(5-{3-methyl-5-[(4-methylpyrimidin-2-yl)amino]phenyl}pyridin-2-yl)cyclohexanecarboxylic acid]: below 100 nM; for `Cc1cc(Nc2nccc(C(F)(F)F)n2)cc(-c2ccc(C(=O)N3CCN(C)C(=O)C3C)nc2)c1` (stereo not drawn) [Example 16.23, 1,3-dimethyl-4-{[5-(3-methyl-5-{[4-(trifluoromethyl)pyrimidin-2-yl]amino}phenyl)pyridin-2-yl]carbonyl}piperazin-2-one]: 100 to 1000 nM; for `Cc1cc(Nc2nccc(C(F)(F)F)n2)cc(-c2ccc(CCC(=O)O)nc2)c1` [Example 13.2, 3-[5-(3-Methyl-5-{[4-(trifluoromethyl)pyrimidin-2-yl]amino}phenyl)pyridin-2-yl]propanoic acid]: below 100 nM. The result for `Cc1cc(Nc2nccc(C(F)(F)F)n2)cc(-c2ccc(NC[C@H]3CC[C@H](C(=O)O)CC3)nc2)c1` [Example 7.144, trans-4-({[5-(3-methyl-5-{[4-(trifluoromethyl)pyrimidin-2-yl]amino}phenyl)pyridin-2-yl]amino}methyl)cyclohexanecarboxylic acid] reads below 100 nM; that for `Cc1cc(Nc2nccc(C(F)(F)F)n2)cc(-c2ccc(C(=O)N(C)CCC3OCCO3)nc2)c1` [Example 16.25, N-[2-(1,3-dioxolan-2-yl)ethyl]-N-methyl-5-(3-methyl-5-{[4-(trifluoromethyl)pyimidin-2-yl]amino}phenyl)pyridine-2-carboxamide], 100 to 1000 nM.

Consider `Cc1cc(Nc2nccc(C(F)(F)F)n2)cc(-c2ccc(C3(O)CCCC(C(=O)O)C3)nc2)c1` (stereo not drawn) [Example 9.21, 3-hydroxy-3-[5-(3-methyl-5-{[4-(trifluoromethyl)pyrimidin-2-yl]amino}phenyl)pyridin-2-yl]cyclohexanecarboxylic acid], for which the IC50 was below 100 nM. The result for `Cc1cc(Nc2nccc(C(F)F)n2)cc(-c2ccc(C(C)(O)C3CCC(C(=O)O)CC3)nc2)c1` (single isomer, unassigned) [Example 9.31, trans-4-{(1R or 1S)-1-[5-(3-{[4-(difluoromethyl)pyrimidin-2-yl]amino}-5-methylphenyl)pyridin-2-yl]-1-hydroxyethyl}cyclohexanecarboxylic acid] reads below 100 nM.

The values are drawn from patent publication US9376418B2, “Substituted pyridine spleen tyrosine kinase (SYK) inhibitors” (Merck Sharp & Dohme Corp., priority 2012, dated 2016).
